Patent publication US20240208992A1, “MACROCYCLES AS CFTR MODULATORS” (Idorsia Pharmaceuticals Ltd, priority 2021, published 2024)

Target: human F508del-CFTR (Homo sapiens, UniProt P13569, DEL508-508)
Experiment: F508del-CFTR cell surface expression (corrector activity), DiscoveRx ß-galactosidase complementation chemiluminescence assay in recombinant U2OS cell line;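 also: U2OS cells co-expressing ProLink-tagged F508del-CFTR and a membrane-anchored enzyme acceptor, where more surface CFTR restores β-galactosidase activity measured by chemiluminescence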
Settings: U2OS cells, 16h compound incubation; for EC50: EC50, F508del-CFTR cell surface expression, geomean of several measurements; for Emax: U2OS, in relation to the Emax of the corrector lumacaftor (=100%), arithmetic mean

Chain of human F508del-CFTR (P13569 with tags, fused parts or gaps DEL508-508): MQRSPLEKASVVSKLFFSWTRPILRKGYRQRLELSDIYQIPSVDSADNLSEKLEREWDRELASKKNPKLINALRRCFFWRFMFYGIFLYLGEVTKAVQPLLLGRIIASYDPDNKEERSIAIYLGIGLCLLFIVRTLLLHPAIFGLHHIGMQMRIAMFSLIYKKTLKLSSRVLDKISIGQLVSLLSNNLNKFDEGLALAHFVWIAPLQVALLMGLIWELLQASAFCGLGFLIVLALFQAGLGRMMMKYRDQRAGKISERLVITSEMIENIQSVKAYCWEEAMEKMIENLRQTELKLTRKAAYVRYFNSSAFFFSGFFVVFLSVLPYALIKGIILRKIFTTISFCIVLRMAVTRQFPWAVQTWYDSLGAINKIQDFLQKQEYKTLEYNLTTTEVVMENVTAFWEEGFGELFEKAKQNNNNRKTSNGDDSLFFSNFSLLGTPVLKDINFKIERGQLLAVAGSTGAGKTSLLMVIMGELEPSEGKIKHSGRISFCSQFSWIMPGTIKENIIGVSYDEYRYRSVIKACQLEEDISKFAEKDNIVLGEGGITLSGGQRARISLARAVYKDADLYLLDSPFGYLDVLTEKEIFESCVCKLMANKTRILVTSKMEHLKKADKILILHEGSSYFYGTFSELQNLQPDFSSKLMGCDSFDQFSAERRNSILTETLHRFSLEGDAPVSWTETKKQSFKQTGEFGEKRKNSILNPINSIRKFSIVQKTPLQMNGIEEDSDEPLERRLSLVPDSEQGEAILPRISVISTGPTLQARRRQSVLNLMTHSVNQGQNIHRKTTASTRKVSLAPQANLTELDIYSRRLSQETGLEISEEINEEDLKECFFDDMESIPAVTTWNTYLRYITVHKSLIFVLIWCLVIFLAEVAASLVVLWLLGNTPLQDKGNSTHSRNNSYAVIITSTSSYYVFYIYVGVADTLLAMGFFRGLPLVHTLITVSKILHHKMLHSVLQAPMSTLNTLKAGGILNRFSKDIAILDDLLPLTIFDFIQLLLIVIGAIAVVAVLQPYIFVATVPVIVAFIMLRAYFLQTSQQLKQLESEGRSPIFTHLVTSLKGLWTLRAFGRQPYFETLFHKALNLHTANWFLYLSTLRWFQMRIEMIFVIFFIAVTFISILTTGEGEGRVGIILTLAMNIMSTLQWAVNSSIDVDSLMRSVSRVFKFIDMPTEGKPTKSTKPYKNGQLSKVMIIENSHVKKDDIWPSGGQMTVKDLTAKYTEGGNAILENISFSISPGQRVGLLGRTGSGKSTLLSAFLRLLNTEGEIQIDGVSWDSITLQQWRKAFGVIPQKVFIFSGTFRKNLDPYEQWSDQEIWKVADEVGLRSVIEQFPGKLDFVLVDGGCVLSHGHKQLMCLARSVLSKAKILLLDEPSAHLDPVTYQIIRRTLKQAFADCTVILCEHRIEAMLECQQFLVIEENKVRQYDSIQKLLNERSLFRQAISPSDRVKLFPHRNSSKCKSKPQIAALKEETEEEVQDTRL

SMILES	EC50	Emax
Cc1cc2c3c(ccc2cn1)OC[C@@H](Cc1ccccc1)NC(=O)C1(CC1)N(C)C(=O)[C@H](CC(C)C)N(C)C(=O)C[C@@H](C(=O)NCCn1nc2ccccc2n1)NC3=O [Example 904, (3′S,7′S,13′R)-N-(2-(2H-benzo[d][1,2,3]triazol-2-yl)ethyl)-13′-benzyl-7′-isobutyl-6′,9′,20′-trimethyl-1′,5′,8′,11′-tetraoxo-2′,3′,4′,5′,6′,7′,8′,9′,11′,12′,13′,14′-dodecahydro-1′H-spiro[cyclopropane-1,10′-[1]oxa[4,7,10,14]tetraazacycloheptadecino[16,17-f]isoquinoline]-3′-carboxamide]	722 nM	365%
Cc1cc2c3c(ccc2cn1)OC[C@@H](Cc1ccccc1)NC(=O)[C@@H](Cc1nc(-c2ccc(F)cn2)no1)N(C)C(=O)[C@H](CC(C)C)N(C)C(=O)C[C@@H](C(=O)NCCc1noc(C2CC2)n1)NC3=O [Example 905]	311 nM	415%
Cc1cc2c3c(ccc2cn1)OC[C@@H](Cc1ccccc1)NC(=O)[C@@H](Cc1nc(-c2ccc(F)cn2)no1)N(C)C(=O)[C@H](CC(C)C)N(C)C(=O)C[C@@H](C(=O)NCCn1nnc(C2CC2)n1)NC3=O [Example 907]	425 nM	454%
CC(C)C[C@H]1C(=O)N(C)[C@H](Cc2nc(C(F)(F)F)no2)C(=O)N[C@H](Cc2ccccc2)COc2ccc3ncc(F)cc3c2C(=O)N[C@H](C(=O)NCCc2nc3ncccn3n2)CC(=O)N1C [Example 908, (3S,7S,10R,13R)-N-(2-([1,2,4]triazolo[1,5-a]pyrimidin-2-yl)ethyl)-13-benzyl-20-fluoro-7-isobutyl-6,9-dimethyl-1,5,8,11-tetraoxo-10-((3-(trifluoromethyl)-1,2,4-oxadiazol-5-yl)methyl)-1,2,3,4,5,6,7,8,9,10,11,12,13,14-tetradecahydro-[1]oxa[4,7,10,14]tetraazacycloheptadecino[16,17-f]quinoline-3-carboxamide]	94 nM	401%

Second part, the compound after the results:

EC50	Emax	SMILES
51 nM	414%	COc1nc(C)cc2c1C(=O)N[C@H](C(=O)NCCn1nc3ccccc3n1)CC(=O)N(C)[C@@H](CC(C)C)C(=O)N(C)[C@H](Cc1nc(C(F)(F)F)no1)C(=O)N[C@H](Cc1ccccc1)CO2 [Example 903, (3R,6R,9S,13S)-N-(2-(2H-benzo[d][1,2,3]triazol-2-yl)ethyl)-3-benzyl-9-isobutyl-16-methoxy-7,10,18-trimethyl-5,8,11,15-tetraoxo-6-((3-(trifluoromethyl)-1,2,4-oxadiazol-5-yl)methyl)-2,3,4,5,6,7,8,9,10,11,12,13,14,15-tetradecahydropyrido[3,4-p][1]oxa[4,7,10,14]tetraazacycloheptadecine-13-carboxamide]
294 nM	433%	COc1cc(CCNC(=O)[C@@H]2CC(=O)N(C)[C@@H](CC(C)C)C(=O)N(C)[C@H](Cc3nc(-c4ccc(F)cn4)no3)C(=O)N[C@H](Cc3ccccc3)COc3ccc4cnc(C)cc4c3C(=O)N2)on1 [Example 906, (3S,7S,10R,13R)-13-benzyl-10-((3-(5-fluoropyridin-2-yl)-1,2,4-oxadiazol-5-yl)methyl)-7-isobutyl-N-(2-(3-methoxyisoxazol-5-yl)ethyl)-6,9,20-trimethyl-1,5,8,11-tetraoxo-1,2,3,4,5,6,7,8,9,10,11,12,13,14-tetradecahydro-[1]oxa[4,7,10,14]tetraazacycloheptadecino[16,17-f]isoquinoline-3-carboxamide]
17 nM	430%	COc1cc(CCNC(=O)[C@@H]2CC(=O)N(C)[C@@H](CC(C)C)C(=O)N(C)[C@H](Cc3nc(C(F)(F)F)no3)C(=O)N[C@H](Cc3ccccc3)COc3cc(C)c4ncccc4c3C(=O)N2)on1 [Example 909, (3S,7S,10R,13R)-13-benzyl-7-isobutyl-N-(2-(3-methoxyisoxazol-5-yl)ethyl)-6,9,17-trimethyl-1,5,8,11-tetraoxo-10-((3-(trifluoromethyl)-1,2,4-oxadiazol-5-yl)methyl)-1,2,3,4,5,6,7,8,9,10,11,12,13,14-tetradecahydro-[1]oxa[4,7,10,14]tetraazacycloheptadecino[16,17-f]quinoline-3-carboxamide]
